# From article PMC12520456, “Regulating Enzyme Activity via Microaggregates Mediated by Phase Separation” (Advanced Science, 2025)
# Non-standard residues stand in square brackets, D forms with d. Residues, ends and D or L forms follow the SMILES beside them.
# Tests used:
# [1] = test system: trypsin pre-incubated with aprotinin; test: Fluorescence anisotropy binding, aprotinin-blocked trypsin; settings: inhibitor and protein both at 20 μM; Figure S3B
# Excerpt: (§1) Figure S3. The fluorescent anisotropy evaluation of binding affinity between DPMD peptide with Proteinase K (A), and inhibitor-saturated and blocked trypsin (B) and chymotrypsin (C). Trypsin/Chymotrypsin was saturated and blocked by aprotinin (Yeasen Biotechnology, trypsin/chymotrypsin inhibitor). (D-H) The fluorescent anisotropy evaluation of binding affinity between DPMD peptide with elastase (D), lipase (E), amylase(F), carboxypeptidase (G), albumin (H) and immunoglobulins (I).
# (§2) Figure S4. The DLS analysis of trypsin, chymotrypsin and DPMD with/without trypsin or chymotrypsin. […]
# (§3) data acquisition. A series of enzyme solutions with varying concentrations (maximum concentrations of trypsin and chymotrypsin were 20 μM each) were prepared in Tris-HCl buffer (10 mM Tris, 150 mM NaCl, 1 mM EDTA, pH 7.0). These enzyme solutions were added to the 96-well plate and incubated with 100 nM DPMD at room temperature for 30 minutes, with triplicates.
# (§4) Fluorescence polarization was measured with an excitation wavelength of 470 nm and an emission […]
# (§5) Plot the fluorescence intensity versus concentration data as scatter plots using Origin software.
# (§6) For data analysis, fit the concentration-fluorescence polarization data with the logistic function in Origin 2021 software to obtain the fitting curve and determine the half-maximal effective concentration (EC50). […]
# Ca-binding assay = settings: peptide 0.625-30 mg/mL with 3 μg/mL Ca2+, 20 mM sodium phosphate buffer pH 7.4, 37 °C 30 min; supernatant calcium by kit; four independent repeats; Figure S1C
# Excerpt: circular dichroism spectrum and molar ellipticity (kdeg·cm2/mol) on the y-axis.
# 3.3 Peptide Synthesis and DPMD Preparation
# All peptides were synthetized according to the optimized HBTU activation/DIEA in situ neutralization protocol developed by […] on the CS bio 336X automated peptide synthesizer. Briefly, after cleavage and deprotection in a reagent cocktail containing 88% TFA, 5% phenol, 5% H2O and 2% TIPS, crude products were precipitated with cold ether and purified to homogeneity by preparative C18 reversed-phase HPLC. The molecular masses were ascertained by electrospray ionization mass spectrometry (ESI-MS). […]
# 0.22μm filter to remove residue. The calcium content of the supernatant was measured using the Calcium ion detection kit (Beyotime) according to the recommended method. […]
# Peptide and enzyme solutions were prepared at varying concentrations and mixed at a 1:1 volume ratio. Solution turbidity was quantitatively assessed by monitoring absorbance at 405 nm using a BioTek spectrophotometer. For fluorescence-based characterization, peptides were labeled with FITC while enzymes were labeled with Cy5. […] For fluorescence recovery after photobleaching (FRAP) analysis, enzyme-aggregated patches were selectively bleached at 60% laser power using 488/640 nm lasers for 10 s, followed by time-lapse imaging at 1-min intervals. […]
# Chymotrypsin = Chymotrypsin activity assay (BTEE); type: biochemical; settings: Figure 2C
# Protocol: and the product's absorbance at […] was dynamically and real-time monitored using a microplate […]
# During the chymotrypsin activity assay, DPMD was incorporated into chymotrypsin. The final concentration of chymotrypsin was set at 10 μg/mL, and the final concentration of DPMD was 5 mg/mL. In the corresponding control group, an equal volume of the buffer solution prepared by the kit was added. Subsequently, the enzyme-peptide mixture was added to the reaction system containing the substrate N-Benzoyl-L-Tyrosine Ethyl Ester (BTEE) at a ratio of 1:100 (where the proportion of the enzyme-peptide mixture solution was 1) for the detection of enzyme activity. The reaction was carried out at 25 ℃, and the product's absorbance at 256 nm was dynamically and real-time monitored using a microplate reader. The experimental result was represented by the enzyme reaction's degree of completion. All the tests were repeated three independent times.
# NIH-3T3 cells were obtained from the National Collection of Authenticated Cell Cultures. HUVECs were obtained from Procell. All cells were maintained in DMEM media at 37°C with 5% CO₂. […] Cell viability was evaluated by the CCK-8 assay (Dojindo) at 1-, 3-, 5-, and 7-days post-treatment. […] The absorbance at 450 nm was recorded using a microplate reader […]
# [2] = biological target: T1, chymotrypsin pre-incubated with aprotinin (Bos taurus, UniProt P00766); test: Fluorescence anisotropy binding, aprotinin-blocked chymotrypsin; settings: inhibitor and protein both at 20 μM; Figure S3C
# T1 construct: purchased Aladdin (chymotrypsin); Yeasen Biotechnology (aprotinin)
# Excerpt: as §1, §2, §3, §4, §5, §6
structure (smiles),measurement,setting,value
"CC[C@@H](C)[C@@H](NC(=O)[C@@H](CCC(N)=O)NC(=O)[C@H](NC(=O)[C@@H](Cc1ccc(O)cc1)NC(=O)CNC(=O)[C@@H](CC(C)C)NC(=O)[C@H](NC(=O)[C@@H](CO)NC(=O)CNC(=O)[C@@H](C)NC(=O)[C@@H](CC(=O)O)NC(=O)[C@@H](C)NC(=O)[C@@H](CCCNC(=N)N)NC(=O)[C@@H](C)NC(=O)[C@@H](CC(=O)O)NC(=O)[C@@H](C)NC(=O)[C@@H](CCCNC(=N)N)NC(=O)[C@@H](C)NC(=O)[C@@H](CC(=O)O)NC(=O)[C@@H](C)NC(=O)[C@@H](CCCNC(=N)N)NC(=O)[C@@H](C)NC(=O)[C@@H](CC(=O)O)NC(=O)[C@@H](C)NC(=O)[C@H](N)CCCNC(=N)N)C(C)C)[C@H](C)CC)C(=O)N[C@H](CCCNC(=N)N)C(=O)O [DPMD, Ac‐(D‐RADA)4‐CONH2] (H-[dR][dA][dD][dA][dR][dA][dD][dA][dR][dA][dD][dA][dR][dA][dD][dA]G[dS][dV][dL]G[dY][dI][dQ][dI][dR]-OH; N-terminus and C-terminus assumed)",anisotropy change with aprotinin-blocked trypsin,[1],only a minimal anisotropy change
same,Ca^2+ binding capacity,Ca-binding assay,clear binding affinity
same,suppression of enzymatic activity of Chymotrypsin,Chymotrypsin,almost complete extent
same,anisotropy change with aprotinin-blocked chymotrypsin,[2],only a minimal anisotropy change
